# Patent US9975896B2, “Inhibitors of transcription factors and uses thereof” (Dana-Farber Cancer Institute, Inc., priority 2013, dated 2018)
# Where two headings read alike, the source gives them in different places.
# Assays:
# [1] = test system: BRD4-dependent Nut-Midline Carcinoma line 797; test: Cell viability (ATPlite) in BRD4 dependant cell line 797; conditions: for EC50: Homo sapiens
# BRPF3 = target: T1, BRPF3 (Homo sapiens, UniProt Q9ULD4); test: BromoScan selectivity panel (Kd); format: binding
# T1 sequence (Q9ULD4 589-693 limits assumed): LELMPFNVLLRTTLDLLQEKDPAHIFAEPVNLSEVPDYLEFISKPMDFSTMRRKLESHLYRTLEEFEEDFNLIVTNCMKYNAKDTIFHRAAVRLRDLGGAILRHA
# BRPF1 = target: T2, BRPF1 (Homo sapiens, UniProt P55201); test: BromoScan selectivity panel (Kd); format: binding
# T2 sequence (P55201 626-740 limits assumed): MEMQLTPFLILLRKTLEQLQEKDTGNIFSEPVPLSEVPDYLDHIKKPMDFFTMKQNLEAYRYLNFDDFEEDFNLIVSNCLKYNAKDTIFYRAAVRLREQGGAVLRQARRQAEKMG
# TRIM33(PHD Bromo.) = target: T3, TRIM33(PHD Bromo.) (Homo sapiens, UniProt Q9UPN9); test: BromoScan selectivity panel (Kd); format: binding
# T3 construct: TRIM33(PHD, Bromo.); TRIM33(PHD Bromo.); fused on or other part: The vendor panel's detection tag or display handle
# T3 sequence (Q9UPN9 1-1127): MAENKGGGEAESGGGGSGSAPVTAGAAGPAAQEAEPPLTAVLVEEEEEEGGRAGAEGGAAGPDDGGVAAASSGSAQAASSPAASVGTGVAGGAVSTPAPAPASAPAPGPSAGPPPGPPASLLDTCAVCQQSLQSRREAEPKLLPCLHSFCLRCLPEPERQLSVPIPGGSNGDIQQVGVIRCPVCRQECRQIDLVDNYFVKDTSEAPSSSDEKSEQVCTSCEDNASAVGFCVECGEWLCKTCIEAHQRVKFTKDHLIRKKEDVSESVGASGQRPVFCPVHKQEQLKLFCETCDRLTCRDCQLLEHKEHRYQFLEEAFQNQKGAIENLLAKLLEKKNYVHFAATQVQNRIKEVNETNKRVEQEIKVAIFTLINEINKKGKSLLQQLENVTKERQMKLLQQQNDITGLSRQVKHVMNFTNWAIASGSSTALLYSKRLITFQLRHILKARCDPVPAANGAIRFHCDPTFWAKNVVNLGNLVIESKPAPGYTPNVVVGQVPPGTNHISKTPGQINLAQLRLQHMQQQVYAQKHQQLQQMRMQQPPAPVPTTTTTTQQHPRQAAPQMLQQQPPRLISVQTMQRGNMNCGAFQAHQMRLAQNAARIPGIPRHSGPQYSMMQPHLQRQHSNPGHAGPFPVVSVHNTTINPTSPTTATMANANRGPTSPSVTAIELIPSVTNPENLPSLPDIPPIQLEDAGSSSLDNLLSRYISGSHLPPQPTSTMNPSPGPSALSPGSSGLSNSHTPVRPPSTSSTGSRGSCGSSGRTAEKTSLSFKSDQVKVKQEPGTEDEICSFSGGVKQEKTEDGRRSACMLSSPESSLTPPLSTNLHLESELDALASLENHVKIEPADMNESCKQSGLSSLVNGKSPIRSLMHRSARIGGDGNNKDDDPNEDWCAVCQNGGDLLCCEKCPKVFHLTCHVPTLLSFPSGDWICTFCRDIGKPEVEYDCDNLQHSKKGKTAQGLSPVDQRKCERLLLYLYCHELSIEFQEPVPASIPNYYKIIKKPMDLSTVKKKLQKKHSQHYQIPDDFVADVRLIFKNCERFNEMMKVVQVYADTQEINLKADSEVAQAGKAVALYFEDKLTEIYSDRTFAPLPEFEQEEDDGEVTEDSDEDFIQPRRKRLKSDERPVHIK
# BRD2(2) = target: T4, BRD2(2) (Homo sapiens, UniProt P25440); test: BromoScan selectivity panel (Kd); format: binding
# T4 construct: the bromodomain-containing protein is BRD2(2)
# T4 sequence (P25440 344-453 limits assumed): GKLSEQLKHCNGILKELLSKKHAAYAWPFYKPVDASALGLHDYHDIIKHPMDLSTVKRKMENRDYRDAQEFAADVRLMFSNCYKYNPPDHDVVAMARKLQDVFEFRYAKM
# BRD4 = BRD4 (Homo sapiens, UniProt O60885); test: In vitro AlphaScreen protein binding assay (competition with biotinylated JQ1); conditions: for IC50: AlphaScreen
# Protocol: Assays were performed with minor modifications from the manufacturer's protocol (PerkinElmer, USA). All reagents were diluted in 50 mM HEPES, 150 mM NaCl, 0.1% w/v BSA, and 0.01% w/v Tween® 20 at pH 7.5 and allowed to equilibrate to room temperature prior to addition to plates. After addition of Alpha beads to master solutions, all subsequent steps were performed in low light conditions. […] After a 1000-rpm spin-down for 1 minute, 100 nL of the solutions of compounds of the invention in DMSO from stock plates were added by pin transfer using a Janus Workstation (PerkinElmer, USA). The streptavidin-coated donor beads (25 μg/ml final) were added as with previous solution in a 2×, 10 μL volume. Following this addition, the plates were sealed with foil to block light exposure and to prevent evaporation. The plates were spun down again at 1000 rpm for 1 minute. Next, the plates were incubated in the room with the plate reader (for temperature equilibration) for 1 hour prior to reading the assay. Signal is stable for up to 3 hours after donor bead addition.
# BRD2(1) = target: T5, BRD2(1) (Homo sapiens, UniProt P25440); test: BromoScan selectivity panel (Kd); format: binding
# T5 construct: the bromodomain-containing protein is BRD2(1)
# T5 sequence (P25440 74-180 limits assumed): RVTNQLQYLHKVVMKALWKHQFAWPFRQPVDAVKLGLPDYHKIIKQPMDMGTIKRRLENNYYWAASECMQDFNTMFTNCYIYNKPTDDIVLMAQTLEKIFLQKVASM
# PERM1(2) = target: T6, PERM1(2) (Homo sapiens, UniProt Q86U86); test: BromoScan selectivity panel (Kd); format: binding
# T6 construct: PERM1(2)
# T6 sequence (Q86U86 177-287 limits assumed): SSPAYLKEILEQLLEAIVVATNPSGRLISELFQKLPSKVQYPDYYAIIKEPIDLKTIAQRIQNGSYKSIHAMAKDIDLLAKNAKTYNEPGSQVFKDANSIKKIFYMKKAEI
# WDR9(2) = target: T7, WDR9(2) (Homo sapiens, UniProt Q9NSI6); test: BromoScan selectivity panel (Kd); format: binding
# T7 construct: WDR9(2)
# T7 sequence (Q9NSI6 1313-1418 limits assumed): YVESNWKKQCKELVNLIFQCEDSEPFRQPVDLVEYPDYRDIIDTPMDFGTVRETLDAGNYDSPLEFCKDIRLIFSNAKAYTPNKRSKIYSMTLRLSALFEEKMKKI
# CBP = CBP (Homo sapiens, UniProt Q92793); test: BromoScan selectivity panel (Kd)
# Sequence of CBP (Q92793 1081-1197 limits assumed): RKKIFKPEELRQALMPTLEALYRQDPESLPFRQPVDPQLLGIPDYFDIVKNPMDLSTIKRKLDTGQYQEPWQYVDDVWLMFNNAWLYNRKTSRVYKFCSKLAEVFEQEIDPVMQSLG
# BRD4(1) = target: T8, BRD4(1) (Homo sapiens, UniProt O60885); test: BromoScan selectivity panel (Kd); format: binding
# T8 construct: the bromodomain-containing protein is BRD4(1)
# BAZ2B = target: T9, BAZ2B (Homo sapiens, UniProt Q9UIF8); test: BromoScan selectivity panel (Kd); format: binding
# T9 sequence (Q9UIF8 2054-2168 limits assumed): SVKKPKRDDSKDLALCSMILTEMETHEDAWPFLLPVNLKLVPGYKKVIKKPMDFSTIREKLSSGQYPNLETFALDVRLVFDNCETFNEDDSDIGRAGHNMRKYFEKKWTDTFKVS
# BRD3(1) = target: T10, BRD3(1) (Homo sapiens, UniProt Q15059); test: BromoScan selectivity panel (Kd); format: binding
# T10 construct: the bromodomain-containing protein is BRD3(1)
# T10 sequence (Q15059 34-140 limits assumed): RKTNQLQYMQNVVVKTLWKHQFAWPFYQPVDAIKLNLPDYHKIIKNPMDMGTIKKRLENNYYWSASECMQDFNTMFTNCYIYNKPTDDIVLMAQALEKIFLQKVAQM
compound,measurement,setting,value
"Cc1noc(C)c1-c1ccc(-c2nc3cnccn3c2NC(C)(C)C)cc1 [UMB32, N-(tert-butyl)-2-(4-(3,5-dimethylisoxazol-4-yl)phenyl)imidazo[1,2-a]pyrazin-3-amine]",EC50,[1],1.13 µM
same,EC50,[1]; read-out: 797--EC50 (μM),0.724 µM
same,EC50,[1]; read-out: BRD4 EC50 (μM),1.1 µM
same,cellular activity in the BRD4 dependant cell line,"[1]; text b618, b620",shows cellular activity in the BRD4 dependant cell line
same,Kd,"BRPF3; Table 8, read-out: Kd (nM) BRPF3",≥ 40000 nM
same,Kd,"BRPF3; Table 9, read-out: BromoScan Kd, nM BRDF3",≥ 40000 nM
same,Kd,"BRPF1; Table 8, read-out: Kd (nM) BRPF1",≥ 40000 nM
same,Kd,"BRPF1; Table 9, read-out: BromoScan Kd, nM BRPF1",≥ 40000 nM
same,Kd,"TRIM33(PHD Bromo.); Table 8, read-out: Kd (nM) TRIM33(PHD Bromo.)",≥ 40000 nM
same,Kd,"TRIM33(PHD Bromo.); Table 9, read-out: BromoScan Kd, nM TRIM33(PHD, Bromo.)",≥ 40000 nM
same,Kd,"BRD2(2); Table 8, read-out: Kd (nM) BRD2(2)",95 nM
same,Kd,"BRD2(2); Table 9, read-out: BromoScan Kd, nM BRD2(2)",95 nM
same,IC50,"BRD4; BRD4 IC50 (μM), Table 3",0.26 µM
same,IC50,"BRD4; IC50 (M), Table 1, in vitro, inhibiting the activity of BRD4",0.256 µM
same,inhibition of the activity of BRD4 in vitro,"BRD4; text b614, b618",active in inhibiting the activity of BRD4 in vitro
same,Kd,"BRD2(1); Table 8, read-out: Kd (nM) BRD2(1)",94 nM
same,Kd,"BRD2(1); Table 9, read-out: BromoScan Kd, nM BRD2(1)",94 nM
same,Kd,"PERM1(2); Table 8, read-out: Kd (nM) PERM1(2)",≥ 40000 nM
same,Kd,"PERM1(2); Table 9, read-out: BromoScan Kd, nM PERM1(2)",≥ 40000 nM
same,Kd,"WDR9(2); Table 8, read-out: Kd (nM) WDR9(2)",≥ 40000 nM
same,Kd,"WDR9(2); Table 9, read-out: BromoScan Kd, nM WDR9(2)",≥ 40000 nM
same,Kd,"CBP; read-out: BromoScan Kd, nM CREBBP, Table 9",4500 nM
same,Kd,"CBP; read-out: Kd (nM) CBP, Table 8",4500 nM
same,Kd,"BRD4(1); Table 8, read-out: Kd (nM) BRD4(1)",80 nM
same,Kd,"BRD4(1); Table 9, read-out: BromoScan Kd, nM BRD4(1)",80 nM
same,Kd,"BAZ2B; Table 8, read-out: Kd (nM) BAZ2B",≥ 40000 nM
same,Kd,"BAZ2B; Table 9, read-out: BromoScan Kd, nM BAZ2B",≥ 40000 nM
same,Kd,"BRD3(1); Table 8, read-out: Kd (nM) BRD3(1)",35 nM
same,Kd,"BRD3(1); Table 9, read-out: BromoScan Kd, nM BRD3(1)",35 nM
